A short description of the data set: Human HepG2 cell viability assay in 384 well format. The following applies: HepG2 cells, read-out: Inhibition. The arrangement: dose 125 nL, time 70.5 hour; cytotoxicity at 70.5 h: concentration not given beside the values. It is filed as toxicity, cell-based.
Regarding `CCOc1ccc(S(=O)(=O)NC(=O)CCC2CCCO2)cc1` (configuration not stated), the cytotoxicity at 70.5 h was -10.5%.

For the compound `O=C(Cc1ccsc1)N1CCC(c2ccncc2)CC1`, the cytotoxicity at 70.5 h was -13.6%.

As to `Cc1ccc(CNC(=O)NC2CCN(CC(F)F)CC2)cc1`, the cytotoxicity at 70.5 h is -4.96%.

Regarding `Cc1csc(CN2CC[C@H]3C[C@H](c4nnc(C)[nH]4)O[C@@H]3C2)n1`, the cytotoxicity at 70.5 h is 20.1%.

`Cc1n[nH]c(CN2CCN(C(=O)C3CCC3)[C@@H]3CS(=O)(=O)C[C@@H]32)n1`: the cytotoxicity at 70.5 h amounted to 0.743%.

Consider `CN(C)Cc1cccc(-c2cccnc2C(=O)NCC2CC2)c1`, for which the cytotoxicity at 70.5 h is -2.77%.

Take `CCc1ccc(CN2CCN(c3ccc(Cl)nn3)CC2)nc1`: the cytotoxicity at 70.5 h was -4.56%.

In the case of `Cc1ccc(F)c2c1CCCN2C(=O)c1cn(CC(=O)N(C)C)nn1`, the cytotoxicity at 70.5 h was -7.17%.

Regarding `CC(C)c1cc(NCC(O)c2ccc(F)cc2)n2nccc2n1` (configuration not stated), the cytotoxicity at 70.5 h is 0.769%.

`CSc1ccccc1NC(=O)c1ccc(N2CCOCC2)nn1`: the cytotoxicity at 70.5 h was -3.96%.

Take `O=C(c1cccnc1N1CCN(CCO)CC1)N1CCCC1`: the cytotoxicity at 70.5 h was -1.63%.

`CC(C)(C)OC(=O)N1CCCN1C(=O)c1cccc(F)c1F`: the cytotoxicity at 70.5 h is -5.84%.

With `Cc1nc[nH]c1C(=O)N1CCCC2(C1)C(=O)N(C)c1ccccc12` (configuration not stated), the cytotoxicity at 70.5 h was -3.87%.

As to `CNc1cncc(C2CCCN2C(=O)Cn2ccnc2C)n1` (configuration not stated), the cytotoxicity at 70.5 h was -5.3%.

With `CN(C)[C@@H]1CCN(C(=O)c2cccc(C#N)c2)[C@H]1Cc1cnn(C)c1`, the cytotoxicity at 70.5 h is -8.57%.

For `CC(C)c1nnc(NC(=O)NCc2ccnc(N(C)C)c2)s1`, the cytotoxicity at 70.5 h was -19.1%.

Consider `COCCCSc1ccc(NCc2scnc2C)cc1`, for which the cytotoxicity at 70.5 h is -0.225%.

Consider `COCC(O)CN(C)C(=O)NCc1ccc(-c2ccn[nH]2)cc1` (configuration not stated), for which the cytotoxicity at 70.5 h is -85.9%.

Turning to `Cc1cc2c(cc1C(=O)N1CC[C@H](CO)[C@@H](O)C1)OCCO2`, the cytotoxicity at 70.5 h is -7.62%.

In the case of `N#Cc1cccc(N2CCCC(CO)(CCOc3ccccc3)C2)n1` (configuration not stated), the cytotoxicity at 70.5 h was 8.55%.

`CN(C)c1nc2c(c(N3CCCC4(CC3)CNC(=O)O4)n1)CCCC2` (configuration not stated): the cytotoxicity at 70.5 h was -1.83%.

`Brc1cc2c(cc1CN1CCC(N3CCCCC3)CC1)OCCO2`: the cytotoxicity at 70.5 h is -2.82%.

In the case of `CCOC(=O)C(CO)NC(=O)CCc1cccc(OC2CCCC2)c1` (configuration not stated), the cytotoxicity at 70.5 h is -3.2%.

Regarding `COc1ccc(NC(=O)N2CCC3(CC2)NC(=O)CC3C(=O)O)c(C)c1` (configuration not stated), the cytotoxicity at 70.5 h was -1.09%.

Regarding `COCCOc1ncccc1C(=O)N1CCCn2ncnc21`, the cytotoxicity at 70.5 h is -5.4%.

Turning to `CC(C)CCC(C)NC(=O)Nc1ccccn1` (configuration not stated), the cytotoxicity at 70.5 h is -2.67%.

Consider `COc1ccccc1CC(=O)N1CCCC(c2nccn2CC(N)=O)C1` (configuration not stated), for which the cytotoxicity at 70.5 h stood at 23.1%.

With `CCOCc1nc(CSc2ccncc2)n(C)n1`, the cytotoxicity at 70.5 h turned out to be 6.25%.

Turning to `CN(C)S(=O)(=O)NCCn1nc(-c2ccccc2)n(C)c1=O`, the cytotoxicity at 70.5 h is -4.25%.

As to `CCOc1ccc(NC(=O)Cc2cc(C)[nH]n2)cc1CO`, the cytotoxicity at 70.5 h was -7.67%.

With `Cc1ccc(CC(=O)N2CCOCC2c2ncon2)cc1` (configuration not stated), the cytotoxicity at 70.5 h is -5.42%.

As to `O=C(NCCc1ccccn1)N1CCOC(c2ccccc2Cl)C1` (configuration not stated), the cytotoxicity at 70.5 h was -5.38%.

With `Cn1cc(CN2CCO[C@H]3CN(Cc4ccsc4)C[C@H]32)cn1`, the cytotoxicity at 70.5 h was -14%.

`CCOc1cc(C(=O)n2cccn2)cc(OCC)c1OCC`: the cytotoxicity at 70.5 h was -6.27%.

With `Cc1ccc(-c2nn(C)c(C(=O)O)c2Br)cc1`, the cytotoxicity at 70.5 h was -20.5%.

Regarding `Cc1ccc(-c2cn3c(n2)CO[C@@H](CNCc2cccnc2)C3)cc1`, the cytotoxicity at 70.5 h came to 11%.

Turning to `Cc1cc(C)nc(C2(C)CCCN2CCO)n1` (configuration not stated), the cytotoxicity at 70.5 h was -0.984%.

Turning to `O=C(COCCOc1ccccc1)NC1CCN(c2ncccn2)CC1`, the cytotoxicity at 70.5 h turned out to be 41.6%.

For `NC(=O)CN1CCN(CC2CC2)c2ccccc21`, the cytotoxicity at 70.5 h was found to be 13.1%.

For `Cc1cc2ncn(C[C@]3(O)CCCN4CCCC[C@@H]43)c2cc1C`, the cytotoxicity at 70.5 h was -15%.

As for `O=C(c1ccccn1)N1CCc2ncnc(-c3ccncc3)c2CC1`, the cytotoxicity at 70.5 h is -0.573%.

With `CC(C)(C)C(=O)NCCC(=O)NS(=O)(=O)c1cccc(C#N)c1`, the cytotoxicity at 70.5 h is 15.8%.

As to `COc1cccc(OCCc2nnc(NC(C)=O)s2)c1`, the cytotoxicity at 70.5 h is -6.24%.

On to `Cn1c(SCc2noc(-c3ccsc3)n2)nnc1C1CCS(=O)(=O)C1` (configuration not stated), for which the cytotoxicity at 70.5 h was -4.08%.

`CCn1ncc2c1CN(C(=O)Cc1cccs1)CC2COC` (configuration not stated): the cytotoxicity at 70.5 h was -7.83%.

Take `COc1c[nH]c(C(=O)Nc2nc(C(C)(C)C)cs2)cc1=O`: the cytotoxicity at 70.5 h was -0.552%.

As to `CC(NC1CCN(C(=O)C2CCCCC2)CC1)c1nccs1` (configuration not stated), the cytotoxicity at 70.5 h is -6.15%.

As to `CCCC(=O)N1CCCN(C(=O)Nc2ccc(C)s2)CC1`, the cytotoxicity at 70.5 h is -4.08%.

With `CCCN(CC)Cn1ncc2cn(-c3ccccc3)nc2c1=O`, the cytotoxicity at 70.5 h was -2.92%.

Regarding `CN1C(=O)CO[C@H](c2ccc(NC(=O)NC(C)(C)C)cc2)[C@H]1CO`, the cytotoxicity at 70.5 h was -0.339%.

Turning to `CN(Cc1cccs1)C(=O)CNC1CCc2ncnn2C1` (configuration not stated), the cytotoxicity at 70.5 h was -5.9%.

For the compound `Nc1cc(CC2COc3ccccc3C2)ccn1` (configuration not stated), the cytotoxicity at 70.5 h stood at 11.8%.

In the case of `Cc1cc(=O)[nH]c(-n2nc(C)c(CCC(=O)Nc3nc(C)cs3)c2C)n1`, the cytotoxicity at 70.5 h is -3.34%.

With `c1cncc(CN2CCn3cc(CN4CCCCC4)nc3C2)c1`, the cytotoxicity at 70.5 h is -5.48%.

Take `CNS(=O)(=O)c1ccc(CN2CCN(Cc3ncccc3C)CC2)cc1`: the cytotoxicity at 70.5 h was -15.3%.

For `COc1c(C)cnc(CN(C)C(=O)c2ccccn2)c1C`, the cytotoxicity at 70.5 h was found to be 15.4%.

For `CCN1CC(C(=O)NCCCc2nc(C)c(C)s2)CC1=O` (configuration not stated), the cytotoxicity at 70.5 h was -9.75%.

As for `CCc1nc2n(n1)CC(Nc1ccnc(-c3ccccc3)n1)CC2` (configuration not stated), the cytotoxicity at 70.5 h was -3.97%.

Consider `Cc1cc(C)n(CC2CCCN2CCCc2nc3ccccc3o2)n1` (configuration not stated), for which the cytotoxicity at 70.5 h is -1.67%.

On to `O=C(O)C1(Cc2ccccc2Cl)CCN(c2ncccc2F)CC1`, for which the cytotoxicity at 70.5 h was -6.72%.

Turning to `CC(c1ccncc1)N(C)S(C)(=O)=O` (configuration not stated), the cytotoxicity at 70.5 h was -5.4%.

Take `COCCN1C[C@@H]2[C@@H](OC)CCN(Cc3cccc(C)n3)[C@@H]2C1`: the cytotoxicity at 70.5 h was -8.62%.

Take `O=C(C1CCCCC1)N1CCC(n2nc(-c3ccco3)ccc2=O)CC1`: the cytotoxicity at 70.5 h was -0.841%.

For the compound `OCc1ccccc1CNCC1CNc2ccnn2C1` (configuration not stated), the cytotoxicity at 70.5 h was -1.22%.

Regarding `NC(=O)c1cc(-n2cc(-c3cccc(C(=O)O)c3)cn2)cs1`, the cytotoxicity at 70.5 h was -9.85%.

For the compound `CC1CN(C(=O)c2ccnc(-n3cncn3)c2)c2ccccc2S1` (configuration not stated), the cytotoxicity at 70.5 h is -0.177%.

Regarding `CNC(=O)CC1CC2(CCNCC2)c2cc(F)ccc21` (configuration not stated), the cytotoxicity at 70.5 h is -3.61%.

Turning to `CCc1cc(NCCCN(C)C2CCCC2)ncn1`, the cytotoxicity at 70.5 h is -11.3%.

In the case of `COc1cccc2c1OCC(C(=O)N1CCC(N3CCOC3=O)CC1)C2` (configuration not stated), the cytotoxicity at 70.5 h was -8.52%.

With `Fc1ccccc1CN1C[C@@H](OCc2ccncc2)[C@H]2OCCC[C@H]21`, the cytotoxicity at 70.5 h is -12.8%.

As to `CN1CCCC1CNC(=O)CCOc1ccc(Cl)cc1` (configuration not stated), the cytotoxicity at 70.5 h was -2.08%.

Take `COc1cc(N2CC[C@H](O)[C@@H]2Cc2cnn(C)c2)ncn1`: the cytotoxicity at 70.5 h is -13.3%.

The values above are taken from ChEMBL document CHEMBL3507680, “University of Dundee, Gates Library screen for HepG2 cell viability”.
